Experimental data as given in ChEMBL document CHEMBL5634183, “Total Synthesis of Bipenicilisorin and Assignment of the Absolute Configuration” (J Nat Prod, 2024).

Legend:
A549 [1] = assay: Antiproliferative activity against human A549 cells assessed as reduction in cell viability incubated for 72 hrs by CCK8 assay; assay type: functional, cell-based
Colon 26 = assay: Antiproliferative activity against mouse Colon 26 cells assessed as reduction in cell viability incubated for 72 hrs by CCK8 assay; assay type: functional, cell-based; details: Colon 26, 72 h
K562 = assay: Antiproliferative activity against human K562 cells assessed as reduction in cell viability by CCK8 assay; assay type: functional, cell-based
A549 [2] = assay: Antiproliferative activity against human A549 cells assessed as reduction in cell viability by CCK8 assay; assay type: functional, cell-based
[3] = Cytotoxicity against mouse RAW264.7 cells assessed as reduction in cell viability incubated for 72 hrs by CCK8 assay; assay type: toxicity, cell-based
Huh-7 = assay: Antiproliferative activity against human Huh-7 cells assessed as reduction in cell viability by CCK8 assay; assay type: functional, cell-based

COC(=O)c1cc2cc(OC)c(-c3c(OC)cc4cc(C(=O)OC)oc(=O)c4c3O)c(O)c2c(=O)o1
IC50 (A549 [1]; Homo sapiens, A549, 72 h): 36.9 µM | IC50 (A549 [1]; a549): 60 µM | IC50 (Colon 26): > 50 µM | IC50 (K562): 6.87 µM | IC50 (A549 [2]): 6.94 µM | IC50 at 72 h [3]: > 50 µM | IC50 (Huh-7): 2.59 µM
